In general, melting point refers to the temperature of the solid-liquid transition. What is called Ki is the equilibrium dissociation constant of an inhibitor or competing ligand from its target.

We go through seven compounds from US20080064689A1, “3-[4-(6-Pyridin-3-Yl)-3-Phenyl] -5-(1H-1,2,3-Triazol-1-Ylmethyl)-1,3-Oxazolidin-2-Ones as Antibacterial Agents” (AstraZeneca AB, priority 2004, published 2008).

SMILES strings stand for the structures. ≈ marks a conversion by molar mass, not a printed value.

Data set [1] concerns Moraxella catarrhalis. Put plainly: MIC, Moraxella catarrhalis (fastidious Gram negative, broth). Format: cell-based. As to conditions: Mueller-Hinton broth with hemin and NAD, 24 hours at 37° C., 5×10^4 CFU/well. The procedure: (§1) The following results were obtained on a standard in-vitro test system. The activity is described in terms of the minimum inhibitory concentration (MIC) determined by the agar-dilution technique with an inoculum size of 10^4 CFU/spot. Typically, compounds are active in the range 0.01 to 256 μg/ml.
(§2) Streptococci and enterococci were tested on agar supplemented with 5% defibrinated horse blood, an inoculum of 10^4 CFU/spot and an incubation temperature of 37° C. in an atmosphere of 5% carbon dioxide for 48 hours—blood is required for the growth of some of the test organisms. Fastidious Gram negative organisms were tested in Mueller-Hinton broth, supplemented with hemin and NAD, grown aerobically for 24 hours at 37° C., and with an innoculum of 5×10^4 CFU/well.

Data set [2] relates to Staphylococcus aureus MRQR (methicillin resistant and quinolone resistant). Briefly: MIC, agar dilution, Staphylococcus aureus MRQR. Format: cell-based. To be noted: inoculum 10^4 CFU/spot, 37° C., 24 hours. The procedure:
as §1
(§3) Staphylococci were tested on agar, using an inoculum of 10^4 CFU/spot and an incubation temperature of 37° C. for 24 hours—standard test conditions for the expression of methicillin resistance.
On the technique in general: In agar dilution the substance is mixed into plates at graded concentrations.

For data set [3], the system named is Staphylococcus aureus MSQS (methicillin sensitive and quinolone sensitive). Put plainly: MIC, agar dilution, Staphylococcus aureus MSQS. The class given is cell-based. To be noted: inoculum 10^4 CFU/spot, 37° C., 24 hours. The method, then: as §1, §3
Data set [4] deals with Haemophilus influenzae. Briefly: MIC, Haemophilus influenzae (fastidious Gram negative, broth). The class given is cell-based. To be noted: Mueller-Hinton broth with hemin and NAD, 24 hours at 37° C., 5×10^4 CFU/well. The procedure:
as §1, §2

For data set [5], the target named is T1, MAO-A (Homo sapiens, UniProt P21397).
T1 construct: made in house; host or cells: yeast
T1 sequence (P21397 1-527): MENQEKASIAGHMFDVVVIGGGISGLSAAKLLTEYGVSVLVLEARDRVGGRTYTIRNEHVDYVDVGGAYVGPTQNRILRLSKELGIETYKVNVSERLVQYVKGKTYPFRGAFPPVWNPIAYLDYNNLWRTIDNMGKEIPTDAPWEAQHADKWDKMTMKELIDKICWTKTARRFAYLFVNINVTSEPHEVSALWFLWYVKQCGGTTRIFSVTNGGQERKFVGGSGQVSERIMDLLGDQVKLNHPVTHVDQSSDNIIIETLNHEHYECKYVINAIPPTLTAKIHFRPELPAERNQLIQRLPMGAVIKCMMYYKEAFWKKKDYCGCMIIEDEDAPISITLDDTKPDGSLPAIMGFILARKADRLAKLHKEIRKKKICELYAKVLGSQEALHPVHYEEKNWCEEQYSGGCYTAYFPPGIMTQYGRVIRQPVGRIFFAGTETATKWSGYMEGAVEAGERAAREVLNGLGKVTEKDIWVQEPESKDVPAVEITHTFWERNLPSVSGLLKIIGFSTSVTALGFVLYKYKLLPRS
Put plainly: MAO-A inhibition, standard in-vitro assay, human liver enzyme expressed in yeast. Format: biochemical. To be noted: read-out: Ki value against MAO-A. The method, then: The activity of the compounds of the invention against MAO-A was tested using a standard in-vitro assay based on human liver enzyme expressed in yeast as described in Biochem. Biophys. Res. Commun. 1991, 181, 1084-1088.

In data set [6] the test system is Streptococcus pneumoniae. Briefly: MIC, agar dilution, Streptococcus pneumoniae. The class given is cell-based. To be noted: agar with 5% defibrinated horse blood, 10^4 CFU/spot, 37° C., 5% carbon dioxide, 48 hours. The procedure: as §1, §2
Data set [7] has as its system Linezolid Resistant Streptococcus pneumoniae. Briefly: MIC, agar dilution, Linezolid Resistant Streptococcus pneumoniae. Format: cell-based. To be noted: agar with 5% defibrinated horse blood, 10^4 CFU/spot, 37° C., 5% carbon dioxide, 48 hours. The procedure: as §1, §2

In the case of `O=C1O[C@@H](Cn2ccnn2)CN1c1ccc(-c2ccc(C3=NO[C@H](CN4CCOCC4)C3)nc2)c(F)c1` [Example 3, (5R)-3-(3-Fluoro-4-{6-[(5S)-5-(morpholin-4-ylmethyl)-4,5-dihydroisoxazol-3-yl]pyridin-3-yl}phenyl)-5-(1H-1,2,3-triazol-1-ylmethyl)-1,3-oxazolidin-2-one], the melting point stood at 230 °C. The MIC in data set [1] turned out to be 1 µg/mL (≈ 1.97 µM). The MIC in data set [2] was determined as 0.5 µg/mL (≈ 0.985 µM). The compound also had an MIC in data set [3] of 0.5 µg/mL (≈ 0.985 µM). The MIC in data set [4] came out at 8 µg/mL (≈ 15.8 µM). In addition, the Ki in data set [5] is over 22000 nM. This compound came in with an MIC in data set [6] of 0.13 µg/mL (≈ 0.256 µM). The compound further yielded an MIC in data set [7] of 1 µg/mL (≈ 1.97 µM).

For `CN(CC(=O)O)CC(=O)N(C)C[C@@H]1CC(c2ccc(-c3ccc(N4C[C@H](Cn5ccnn5)OC4=O)cc3F)cn2)=NO1` [Example 24, N-{2-[{[(5S)-3-(5-{2-Fluoro-4-[(5R)-2-oxo-5-(1H-1,2,3-triazol-1-ylmethyl)-1,3-oxazolidin-3-yl]phenyl}pyridin-2-yl)-4,5-dihydroisoxazol-5-yl]methyl}(methyl)amino]-2-oxoethyl}-N-methylglycine], the melting point was 135 to 145 °C.

`O=C(O)CNCC(=O)NC[C@@H]1CC(c2ccc(-c3ccc(N4C[C@H](Cn5ccnn5)OC4=O)cc3F)cn2)=NO1` [Example 25, N-[2-({[(5S)-3-(5-{2-Fluoro-4-[(5R)-2-oxo-5-(1H-1,2,3-triazol-1-ylmethyl)-1,3-oxazolidin-3-yl]phenyl}pyridin-2-yl)-4,5-dihydroisoxazol-5-yl]methyl}amino)-2-oxoethyl]glycine] registered a melting point of 200 to 210 °C.

With `O=C1O[C@@H](Cn2ccnn2)CN1c1ccc(-c2ccc(C3=NO[C@H](Cn4ccnc4)C3)nc2)c(F)c1` [Example 26, (5R)-3-(3-Fluoro-4-{6-[(5S)-5-(1H-imidazol-1-ylmethyl)-4,5-dihydroisoxazol-3-yl]pyridin-3-yl}phenyl)-5-(1H-1,2,3-triazol-1-ylmethyl)-1,3-oxazolidin-2-one], the melting point was in the range of 239 to 242 °C.

Compound `CN(CC(=O)O)CC(=O)NC[C@@H]1CC(c2ccc(-c3ccc(N4C[C@H](Cn5ccnn5)OC4=O)cc3F)cn2)=NO1` [Example 27, N-[2-({[(5S)-3-(5-{2-Fluoro-4-[(5R)-2-oxo-5-(1H-1,2,3-triazol-1-ylmethyl)-1,3-oxazolidin-3-yl]phenyl}pyridin-2-yl)-4,5-dihydroisoxazol-5-yl]methyl}amino)-2-oxoethyl]-N-methylglycine] registered a melting point of 185 to 188 °C.

Compound `N[C@@H](CC(=O)O)C(=O)NC[C@@H]1CC(c2ccc(-c3ccc(N4C[C@H](Cn5ccnn5)OC4=O)cc3F)cn2)=NO1` [Example 28, N^1-{[(5S)-3-(5-{2-Fluoro-4-[(5R)-2-oxo-5-(1H-1,2,3-triazol-1-ylmethyl)-1,3-oxazolidin-3-yl]phenyl}pyridin-2-yl)-4,5-dihydroisoxazol-5-yl]methyl}-L-α-asparagine] registered a melting point of 224 to 226 °C.

As for `NC[C@@H]1CC(c2ccc(-c3ccc(N4C[C@H](Cn5ccnn5)OC4=O)cc3F)cn2)=NO1` [Reference Example 16, (5R)-3-(4-{6-[(5S)-5-(Aminomethyl)-4,5-dihydroisoxazol-3-yl]pyridin-3-yl}-3-fluorophenyl)-5-(1H-1,2,3-triazol-1-ylmethyl)-1,3-oxazolidin-2-one], the melting point lay in the range of 119 to 122 °C. Besides, the Ki in data set [5] turned out to be 350 nM.
